# Test results as given in ChEMBL document CHEMBL4732096, “Design, synthesis and evaluation of calix[4]arene-based carbonyl amide derivatives with antitumor activities” (Eur J Med Chem, 2021).
# How the values were obtained:
# HT-29 = assay: Antiproliferative activity against human HT-29 cells assessed as inhibition of cell growth at 10 uM measured after 72 hrs by MTT assay relative to control; type: functional
# MDA-MB-231 [1] = assay: Antiproliferative activity against human MDA-MB-231 cells assessed as inhibition of cell growth at 10 uM measured after 72 hrs by MTT assay relative to control; type: functional
# [2] = Cytotoxicity against HUVEC cells assessed as inhibition of cell growth at 10 uM measured after 72 hrs by MTT assay; type: cell-based; conditions: human
# A549 [3] = assay: Antiproliferative activity against human A549 cells assessed as inhibition of cell growth measured after 72 hrs by MTT assay; type: functional, cell-based; conditions: A549, 72 h
# MCF7 = assay: Antiproliferative activity against human MCF7 cells assessed as inhibition of cell growth at 10 uM measured after 72 hrs by MTT assay relative to control; type: functional
# MDA-MB-231 [4] = assay: Antiproliferative activity against human MDA-MB-231 cells assessed as inhibition of cell growth measured after 72 hrs by MTT assay; type: functional, cell-based; conditions: MDA-MB-231, 72 h
# HepG2 = assay: Antiproliferative activity against human HepG2 cells assessed as inhibition of cell growth at 10 uM measured after 72 hrs by MTT assay relative to control; type: functional
# A549 [5] = assay: Antiproliferative activity against human A549 cells assessed as inhibition of cell growth at 10 uM measured after 72 hrs by MTT assay relative to control; type: functional
Compound,inhibition at 10 µM (HT-29),inhibition at 10 µM (MDA-MB-231 [1]),"inhibition at 72 h, 10 µM [2]",IC50 (A549 [3]),inhibition at 10 µM (MCF7),IC50 (MDA-MB-231 [4]),inhibition at 10 µM (HepG2),inhibition at 10 µM (A549 [5])
CC(C)(C)c1cc2c(O)c(c1)Cc1cc(C(C)(C)C)cc(c1OCCCCCC(=O)NCCCO)Cc1cc(C(C)(C)C)cc(c1O)Cc1cc(C(C)(C)C)cc(c1OCCCCCC(=O)NCCCO)C2,17.9%,30.1%,< 0%,> 100 µM,< 0%,42.8 µM,9.3%,56.5%
CC(C)(C)c1cc2c(O)c(c1)Cc1cc(C(C)(C)C)cc(c1OCCCCCC(=O)NCCO)Cc1cc(C(C)(C)C)cc(c1O)Cc1cc(C(C)(C)C)cc(c1OCCCCCC(=O)NCCO)C2,17.3%,34.3%,< 0%,> 100 µM,< 0%,13 µM,22.6%,61.6%
CC(C)(C)c1cc2c(O)c(c1)Cc1cc(C(C)(C)C)cc(c1OCCCC(=O)NCCO)Cc1cc(C(C)(C)C)cc(c1O)Cc1cc(C(C)(C)C)cc(c1OCCCC(=O)NCCO)C2,40.1%,25.8%,57%,13.7 µM,16.2%,11.7 µM,28.7%,54.4%
CCC(Oc1c2cc(C(C)(C)C)cc1Cc1cc(C(C)(C)C)cc(c1O)Cc1cc(C(C)(C)C)cc(c1OC(CC)C(=O)NCCO)Cc1cc(C(C)(C)C)cc(c1O)C2)C(=O)NCCO (stereo not given),32.1%,79.6%,34.3%,2.22 µM,< 0%,0.92 µM,26.1%,68.7%
CC(C)(C)c1cc2c(O)c(c1)Cc1cc(C(C)(C)C)cc(c1OCC(=O)NCCO)Cc1cc(C(C)(C)C)cc(c1O)Cc1cc(C(C)(C)C)cc(c1OCC(=O)NCCO)C2,66.2%,90.5%,19.6%,3.84 µM,92.2%,4.53 µM,89.9%,92.3%
CC(Oc1c2cc(C(C)(C)C)cc1Cc1cc(C(C)(C)C)cc(c1O)Cc1cc(C(C)(C)C)cc(c1OC(C)C(=O)NCCCO)Cc1cc(C(C)(C)C)cc(c1O)C2)C(=O)NCCCO (stereo not given),58.4%,90.1%,48.2%,1.76 µM,82.5%,1.31 µM,69%,91.2%
CCC(Oc1c2cc(C(C)(C)C)cc1Cc1cc(C(C)(C)C)cc(c1O)Cc1cc(C(C)(C)C)cc(c1OC(CC)C(=O)NCCCCCO)Cc1cc(C(C)(C)C)cc(c1O)C2)C(=O)NCCCCCO (stereo not given),26.3%,63.7%,< 0%,3.78 µM,< 0%,1.36 µM,9.3%,52.7%
CC(C)(C)c1cc2c(O)c(c1)Cc1cc(C(C)(C)C)cc(c1OC/C=C/C(=O)N(CCO)CCO)Cc1cc(C(C)(C)C)cc(c1O)Cc1cc(C(C)(C)C)cc(c1OC/C=C/C(=O)N(CCO)CCO)C2,39.8%,58.8%,< 0%,7.04 µM,80.2%,6.77 µM,41%,82%
CC(C)(C)c1cc2c(O)c(c1)Cc1cc(C(C)(C)C)cc(c1OCCCCCC(=O)NCCCCCO)Cc1cc(C(C)(C)C)cc(c1O)Cc1cc(C(C)(C)C)cc(c1OCCCCCC(=O)NCCCCCO)C2,21.2%,31.2%,< 0%,> 100 µM,< 0%,97.6 µM,21.9%,46.1%
CC(C)(C)c1cc2c(O)c(c1)Cc1cc(C(C)(C)C)cc(c1OCCCCCC(=O)N(CCO)CCO)Cc1cc(C(C)(C)C)cc(c1O)Cc1cc(C(C)(C)C)cc(c1OCCCCCC(=O)N(CCO)CCO)C2,22.2%,34.5%,< 0%,> 100 µM,1.44%,> 100 µM,17.3%,46.8%
CCC(Oc1c2cc(C(C)(C)C)cc1Cc1cc(C(C)(C)C)cc(c1O)Cc1cc(C(C)(C)C)cc(c1OC(CC)C(=O)NCCCO)Cc1cc(C(C)(C)C)cc(c1O)C2)C(=O)NCCCO (stereo not given),41.5%,80.1%,< 0%,0.96 µM,< 0%,0.85 µM,20.3%,80.2%
CC(C)(C)c1cc2c(O)c(c1)Cc1cc(C(C)(C)C)cc(c1OCCCC(=O)NCCCCCO)Cc1cc(C(C)(C)C)cc(c1O)Cc1cc(C(C)(C)C)cc(c1OCCCC(=O)NCCCCCO)C2,33.1%,34.4%,5.8%,7.64 µM,< 0%,9.15 µM,25%,50.5%
CC(Oc1c2cc(C(C)(C)C)cc1Cc1cc(C(C)(C)C)cc(c1O)Cc1cc(C(C)(C)C)cc(c1OC(C)C(=O)N(CCO)CCO)Cc1cc(C(C)(C)C)cc(c1O)C2)C(=O)N(CCO)CCO (stereo not given),65.7%,91.3%,57.2%,3.75 µM,96.2%,1.63 µM,93.8%,91.2%
CC(C)(C)c1cc2c(O)c(c1)Cc1cc(C(C)(C)C)cc(c1OC/C=C/C(=O)NCCCCCO)Cc1cc(C(C)(C)C)cc(c1O)Cc1cc(C(C)(C)C)cc(c1OC/C=C/C(=O)NCCCCCO)C2,23.9%,39.5%,23.8%,> 100 µM,< 0%,94.3 µM,11.8%,37.6%
CC(C)(C)c1cc2c(O)c(c1)Cc1cc(C(C)(C)C)cc(c1OC/C=C/C(=O)NCCCO)Cc1cc(C(C)(C)C)cc(c1O)Cc1cc(C(C)(C)C)cc(c1OC/C=C/C(=O)NCCCO)C2,36.1%,61.5%,38.8%,3.59 µM,48.2%,5.2 µM,9.5%,63.3%
CC(C)(C)c1cc2c(O)c(c1)Cc1cc(C(C)(C)C)cc(c1OCCCC(=O)NCCCO)Cc1cc(C(C)(C)C)cc(c1O)Cc1cc(C(C)(C)C)cc(c1OCCCC(=O)NCCCO)C2,35.3%,29.5%,< 0%,10.3 µM,< 0%,17.9 µM,24.4%,56.4%
CC(Oc1c2cc(C(C)(C)C)cc1Cc1cc(C(C)(C)C)cc(c1O)Cc1cc(C(C)(C)C)cc(c1OC(C)C(=O)NCCCCCO)Cc1cc(C(C)(C)C)cc(c1O)C2)C(=O)NCCCCCO (stereo not given),49.6%,89.3%,31.8%,2.98 µM,< 0%,3.26 µM,19.8%,86.8%
CC(Oc1c2cc(C(C)(C)C)cc1Cc1cc(C(C)(C)C)cc(c1O)Cc1cc(C(C)(C)C)cc(c1OC(C)C(=O)NCCO)Cc1cc(C(C)(C)C)cc(c1O)C2)C(=O)NCCO (stereo not given),47.3%,89.2%,35.7%,2.5 µM,76.8%,1.18 µM,67.9%,91.8%
CC(C)(C)c1cc2c(O)c(c1)Cc1cc(C(C)(C)C)cc(c1OCCCC(=O)N(CCO)CCO)Cc1cc(C(C)(C)C)cc(c1O)Cc1cc(C(C)(C)C)cc(c1OCCCC(=O)N(CCO)CCO)C2,61.5%,80%,< 0%,3.81 µM,60.1%,5.81 µM,62.8%,88.1%
CC(C)(C)c1cc2c(O)c(c1)Cc1cc(C(C)(C)C)cc(c1OC/C=C/C(=O)NCCO)Cc1cc(C(C)(C)C)cc(c1O)Cc1cc(C(C)(C)C)cc(c1OC/C=C/C(=O)NCCO)C2,27.8%,35%,8.9%,6.29 µM,38%,5.46 µM,19.8%,63.5%
